Test results from US7642245B2, “Antibacterial compounds having a (pyrrole carboxamide)-(benzamide)-(imidazole carboxamide) motif” (Oscient Pharmaceuticals Corporation, priority 2002, dated 2010).

Key:
[1] = system: S. aureus ATCC 13709; assay: MIC, NCCLS broth microdilution; type: cell-based, Staphylococcus aureus; conditions: A = S. aureus ATCC 13709 (MSSA)
Description: (§1) In vitro biological activity data were collected for a variety of microorganisms, including Staphylococcus aureus (ATCC 27660, a methicillin resistant strain (MRSA); ATCC 13709, a methicillin sensitive strain (MSSA)), Enterococcus faecalis (ATCC 29212), Bacillus cereus (ATCC 11778), Streptococcus pneumoniae (ATCC 49619), Candida albicans (ATCC 38247), Escherichia coli (ATCC 25922), and Moraxella (now Branhamella) catarrhalis (ATCC 25238).
(§2) The minimal inhibition concentration (MIC) of these compounds was determined using the National Committee for Clinical Laboratory Standards (NCCLS) broth microdilution assay in microtiter plates, as set forth in: (1) the guidelines of the National Committee for Clinical Laboratory Standards (NCCLS) Document M7-A4 (NCCLS, 1997); (2) the guidelines of the National Committee for Clinical Laboratory Standards (NCCLS) Document M11-A4 (NCCLS, 1997); and (3) the guidelines and reference method of the National Committee for Clinical Laboratory Standards (NCCLS) Document M27-T (NCCLS, 1995). For antifungal assays, the method recommended in Murray, P R., 1995 Manual of Clinical Microbiology (ASM Press, Washington, DC.), was employed.

[2] = system: S. aureus ATCC 27660; assay: MIC, NCCLS broth microdilution; type: cell-based, Staphylococcus aureus; conditions: B = S. aureus ATCC 27660 (MRSA)
Description: as §1, §2

[3] = system: E. faecalis ATCC 29212; assay: MIC, NCCLS broth microdilution; type: cell-based, Enterococcus faecalis; conditions: C = E. faecalis ATCC 29212
Description: as §1, §2

[4] = system: B. cereus ATCC 11778; assay: MIC, NCCLS broth microdilution; type: cell-based, Bacillus cereus; conditions: D = B. cereus ATCC 11778
Description: as §1, §2

[5] = system: S. pneumoniae ATCC 49619; assay: MIC, NCCLS broth microdilution; type: cell-based, Streptococcus pneumoniae; conditions: E = S. pneumoniae ATCC 49619
Description: as §1, §2

[6] = system: M. catarrhalis (ATCC 25238); assay: MIC, NCCLS broth microdilution; type: cell-based, Moraxella (now Branhamella) catarrhalis; conditions: H = M. catarrhalis (ATCC 25238)
Description: as §1, §2

[7] = system: E. coli ATCC 25922; assay: MIC, NCCLS broth microdilution; type: cell-based, Escherichia coli; conditions: G = E. coli ATCC 25922
Description: as §1, §2

[8] = system: C. albicans ATCC 38247; assay: MIC, antifungal assay; type: cell-based, Candida albicans; conditions: F = C. albicans ATCC 38247
Description: as §1, §2

Structure (SMILES) | Minimum Inhibitory Concentration (MIC) [1] | Minimum Inhibitory Concentration (MIC) [2] | Minimum Inhibitory Concentration (MIC) [3] | Minimum Inhibitory Concentration (MIC) [4] | Minimum Inhibitory Concentration (MIC) [5] | Minimum Inhibitory Concentration (MIC) [6] | Minimum Inhibitory Concentration (MIC) [7] | Minimum Inhibitory Concentration (MIC) [8]
COCCNCCNC(=O)c1nc(NC(=O)c2ccc(NC(=O)c3cc(NC(=O)c4cc5ccccc5cn4)cn3C)cc2)cn1C [Compound A-28] | +++ (MIC ≦ 4 μg/mL) | +++ (MIC ≦ 4 μg/mL) | +++ (MIC ≦ 4 μg/mL) | +++ (MIC ≦ 4 μg/mL) | +++ (MIC ≦ 4 μg/mL) | +++ (MIC ≦ 4 μg/mL) | ++ (4 < MIC < 12 μg/mL) | + (12 ≦ MIC ≦ 32 μg/mL)
COCCN(C)CCNC(=O)c1nc(NC(=O)c2ccc(NC(=O)c3cc(NC(=O)c4cc5ccccc5cn4)cn3C)cc2)cn1C [Compound A-29] | +++ (MIC ≦ 4 μg/mL) | +++ (MIC ≦ 4 μg/mL) | +++ (MIC ≦ 4 μg/mL) | +++ (MIC ≦ 4 μg/mL) | +++ (MIC ≦ 4 μg/mL) | +++ (MIC ≦ 4 μg/mL) | ++ (4 < MIC < 12 μg/mL) | + (12 ≦ MIC ≦ 32 μg/mL)
CCOCCCNCCNC(=O)c1nc(NC(=O)c2ccc(NC(=O)c3cc(NC(=O)c4cc5ccccc5cn4)cn3C)cc2)cn1C [Compound A-31] | +++ (MIC ≦ 4 μg/mL) | +++ (MIC ≦ 4 μg/mL) | ++ (4 < MIC < 12 μg/mL) | ++ (4 < MIC < 12 μg/mL) | +++ (MIC ≦ 4 μg/mL) | >32 µg/mL | >32 µg/mL | + (12 ≦ MIC ≦ 32 μg/mL)
CCN(CCO)CCNC(=O)c1nc(NC(=O)c2ccc(NC(=O)c3cc(NC(=O)c4cc5ccccc5cn4)cn3C)cc2)cn1C [Compound A-32] | +++ (MIC ≦ 4 μg/mL) | +++ (MIC ≦ 4 μg/mL) | +++ (MIC ≦ 4 μg/mL) | +++ (MIC ≦ 4 μg/mL) | +++ (MIC ≦ 4 μg/mL) | +++ (MIC ≦ 4 μg/mL) | >32 µg/mL | >32 µg/mL
Cn1cc(NC(=O)c2cc3ccccc3cn2)cc1C(=O)Nc1ccc(C(=O)Nc2cn(C)c(C(=O)NCCNCCCCCO)n2)cc1 [Compound A-33] | +++ (MIC ≦ 4 μg/mL) | +++ (MIC ≦ 4 μg/mL) | +++ (MIC ≦ 4 μg/mL) | +++ (MIC ≦ 4 μg/mL) | +++ (MIC ≦ 4 μg/mL) | >32 µg/mL | +++ (MIC ≦ 4 μg/mL) | >32 µg/mL
Cn1cc(NC(=O)c2cc3ccccc3cn2)cc1C(=O)Nc1ccc(C(=O)Nc2cn(C)c(C(=O)NCCNCC3CC3)n2)cc1 [Compound A-34] | +++ (MIC ≦ 4 μg/mL) | +++ (MIC ≦ 4 μg/mL) | +++ (MIC ≦ 4 μg/mL) | +++ (MIC ≦ 4 μg/mL) | +++ (MIC ≦ 4 μg/mL) | +++ (MIC ≦ 4 μg/mL) | +++ (MIC ≦ 4 μg/mL) | >32 µg/mL
Cn1cc(NC(=O)c2cc3ccccc3cn2)cc1C(=O)Nc1ccc(C(=O)Nc2cn(C)c(C(=O)NCCNC3CCCCC3)n2)cc1 [Compound A-35] | +++ (MIC ≦ 4 μg/mL) | +++ (MIC ≦ 4 μg/mL) | +++ (MIC ≦ 4 μg/mL) | +++ (MIC ≦ 4 μg/mL) | +++ (MIC ≦ 4 μg/mL) | ++ (4 < MIC < 12 μg/mL) | >32 µg/mL | >32 µg/mL
Cn1cc(NC(=O)c2cc3ccccc3cn2)cc1C(=O)Nc1ccc(C(=O)Nc2cn(C)c(C(=O)NCCNCCN3CCCC3)n2)cc1 [Compound A-36] | +++ (MIC ≦ 4 μg/mL) | +++ (MIC ≦ 4 μg/mL) | +++ (MIC ≦ 4 μg/mL) | +++ (MIC ≦ 4 μg/mL) | +++ (MIC ≦ 4 μg/mL) | ++ (4 < MIC < 12 μg/mL) | >32 µg/mL | + (12 ≦ MIC ≦ 32 μg/mL)
CCCNCCNC(=O)c1nc(NC(=O)c2ccc(NC(=O)c3cc(NC(=O)c4cc5ccccc5cn4)cn3C)cc2)cn1C [Compound A-37] | +++ (MIC ≦ 4 μg/mL) | +++ (MIC ≦ 4 μg/mL) | +++ (MIC ≦ 4 μg/mL) | +++ (MIC ≦ 4 μg/mL) | +++ (MIC ≦ 4 μg/mL) | +++ (MIC ≦ 4 μg/mL) | +++ (MIC ≦ 4 μg/mL) | >32 µg/mL
COCC(C)NCCNC(=O)c1nc(NC(=O)c2ccc(NC(=O)c3cc(NC(=O)c4cc5ccccc5cn4)cn3C)cc2)cn1C (stereo not drawn) [Compound A-38] | +++ (MIC ≦ 4 μg/mL) | +++ (MIC ≦ 4 μg/mL) | +++ (MIC ≦ 4 μg/mL) | +++ (MIC ≦ 4 μg/mL) | +++ (MIC ≦ 4 μg/mL) | +++ (MIC ≦ 4 μg/mL) | >32 µg/mL | >32 µg/mL
COCCCNCCNC(=O)c1nc(NC(=O)c2ccc(NC(=O)c3cc(NC(=O)c4cc5ccccc5cn4)cn3C)cc2)cn1C [Compound A-39] | +++ (MIC ≦ 4 μg/mL) | +++ (MIC ≦ 4 μg/mL) | +++ (MIC ≦ 4 μg/mL) | +++ (MIC ≦ 4 μg/mL) | +++ (MIC ≦ 4 μg/mL) | >32 µg/mL | >32 µg/mL | >32 µg/mL
Cn1cc(NC(=O)c2cc3ccccc3cn2)cc1C(=O)Nc1ccc(C(=O)Nc2cn(C)c(C(=O)NCCN3CCCCC3CN3CCCC3)n2)cc1 (stereo not drawn) [Compound A-40] | +++ (MIC ≦ 4 μg/mL) | +++ (MIC ≦ 4 μg/mL) | +++ (MIC ≦ 4 μg/mL) | +++ (MIC ≦ 4 μg/mL) | +++ (MIC ≦ 4 μg/mL) | ++ (4 < MIC < 12 μg/mL) | >32 µg/mL | >32 µg/mL
Cn1cc(NC(=O)c2cc3ccccc3cn2)cc1C(=O)Nc1ccc(C(=O)Nc2cn(C)c(C(=O)NCCN3CCC(F)CC3)n2)cc1 [Compound A-41] | +++ (MIC ≦ 4 μg/mL) | +++ (MIC ≦ 4 μg/mL) | +++ (MIC ≦ 4 μg/mL) | +++ (MIC ≦ 4 μg/mL) | +++ (MIC ≦ 4 μg/mL) | +++ (MIC ≦ 4 μg/mL) | >32 µg/mL | >32 µg/mL
Cn1cc(NC(=O)c2cc3ccccc3cn2)cc1C(=O)Nc1ccc(C(=O)Nc2cn(C)c(C(=O)NCCNCCOCCOCCN)n2)cc1 [Compound A-42] | +++ (MIC ≦ 4 μg/mL) | +++ (MIC ≦ 4 μg/mL) | +++ (MIC ≦ 4 μg/mL) | ++ (4 < MIC < 12 μg/mL) | + (12 ≦ MIC ≦ 32 μg/mL) | >32 µg/mL | >32 µg/mL | + (12 ≦ MIC ≦ 32 μg/mL)
Cn1cc(NC(=O)c2cc3ccccc3cn2)cc1C(=O)Nc1ccc(C(=O)Nc2cn(C)c(C(=O)NCCNCCCO)n2)cc1 [Compound A-43] | +++ (MIC ≦ 4 μg/mL) | +++ (MIC ≦ 4 μg/mL) | +++ (MIC ≦ 4 μg/mL) | +++ (MIC ≦ 4 μg/mL) | +++ (MIC ≦ 4 μg/mL) | >32 µg/mL | >32 µg/mL | >32 µg/mL
